The results in this text go back to patent US20040253665A1, “Novel peptide-producing enzyme, microbe producing the enzyme and method for dipeptide synthesis using them” (AJINOMOTO CO., INC., priority 2002, published 2004).

Marks after values point to notes of the source that are not given here. Non-standard residues stand in square brackets, D forms with d. Residues, ends and D or L forms follow the SMILES beside them. No end group written: not given here. *: point of attachment. Tle = CC(C)(C)[C@H](N)C(=O)O; NMeA = CN[C@@H](C)C(=O)O; Boc = CC(C)(C)OC(=O)*; Aib = CC(C)(N)C(=O)O; OtBu = CC(C)(C)O*; tBu = CC(C)(C)*

The first assay concerns peptide-producing enzyme (Mono S fraction) from Empedobacter brevis strain FERM BP-8113. The assay is described as follows: Enzyme substrate specificity (1)-(10), (13), (14). It is filed as biochemical. The settings on record: L or D amino acid methyl ester hydrochloride 100 mM, L or D amino acid 150 mM, pH 9.0, 25° C., 3 hours. An excerpt:
Ester specificity was examined in the case of using L-amino acid ester for the carboxy component. […] The amounts of L-Ala-L-Gln produced in this reaction are shown in Table 4 (HCl represents hydrochloride in Table 4). Peptide production was examined in the case of using L-alanine methyl ester for the carboxy component and using various L-amino acids for the amine component. […] (The “+” mark indicates those peptides for which production was confirmed but which were unable to be quantified due to the absence of a standard, while “tr” indicates a trace amount.) Peptide production was examined in the case of using various types of L-amino acid methyl esters for the carboxy component and using L-glutamine for the amine component. […] Peptide production was examined in the case of using various L-amino acid methyl esters for the carboxy component and various L-amino acids for the amine component. […] (The “tr” indicates a trace amount.) Furthermore, Tween-80 was added to the reaction system to a final concentration of 0.1% in the case of using L-Trp-OMe. (The “+” mark indicates those peptides for which production was confirmed but which were unable to be quantified due to the absence of a standard.) […] (The “tr” indicates a trace amount.) Peptide production was examined using various L-amino acid amides for the carboxy component, and various L-amino acids for the amine component. […] Peptide production was examined in the case of using various L-alanine methyl esters for the carboxy component and C-protected L-amino acids for the amine component. […] Peptide production was examined in the case of using various amino acid methyl esters for the carboxy component and methylamine for the amine component. […] Peptide production was examined in the case of using β-amino acid ester for the carboxy component or β-amino acid for the amine component. […] (The “tr” indicates a trace amount.) Oligopeptide production was examined in the case of using L-amino acid ester for the carboxy component and peptide for the amine component. […] Substrate specificity was additionally assessed using the same enzyme fraction as that used in Example 5. […] (A “+” mark indicates those for which production was confirmed but which were unable to be quantified due to the absence of a standard, while “tr” indicates a trace amount). Substrate specificity with respect to oligopeptide production was assessed using the same enzyme fraction as Example 26. […] (A “+” mark indicates those for which production was confirmed but which were unable to be quantified due to the absence of a standard, while “tr” indicates a trace amount). It should be noted that hydrochlorides were used for all of the carboxy components.
In the case of `C[C@H](O)[C@@H](N)C(=O)N[C@@H](CO)C(=O)O` [D-Thr-L-Ser] (H-[dT]-Ser-OH), the “Produced peptide” value was 1.0 mM.

As to `CC(C)[C@@H](N)C(=O)N[C@H](CO)C(=O)O` [D-Val-D-Ser] (H-[dV]-[dS]-OH), the “Produced peptide” value is reported as 0.5 mM.

For `CC(C)[C@@H](N)C(=O)N[C@@H](CO)C(=O)O` [D-Val-L-Ser] (H-[dV]-Ser-OH), the “Produced peptide” value worked out at 0.6 mM.

`C[C@@H](O)[C@H](N)C(=O)N[C@H](CO)C(=O)O` [L-Thr-D-Ser] (H-Thr-[dS]-OH): the “Produced peptide” value came to 6.9 mM.

For `CSCC[C@@H](N)C(=O)N[C@H](CO)C(=O)O` [D-Met-D-Ser] (H-[dM]-[dS]-OH), the “Produced peptide” value stood at 2.7 mM.

For the compound `CSCC[C@H](N)C(=O)N[C@H](CO)C(=O)O` [L-Met-D-Ser] (H-Met-[dS]-OH), the “Produced peptide” value stood at 1.9 mM.

Consider `N[C@H](CO)C(=O)N[C@H](CO)C(=O)O` [D-Ser-D-Ser] (H-[dS]-[dS]-OH), for which the “Produced peptide” value worked out at 2.5 mM.

For `C[C@@H](N)C(=O)N[C@@H](CCC(N)=O)C(=O)O` [D-Ala-L-Gln] (H-[dA]-Gln-OH), the “Produced peptide” value is recorded as 69.3 mM.

Regarding `N[C@@H](CO)C(=O)N[C@H](CO)C(=O)O` [L-Ser-D-Ser] (H-Ser-[dS]-OH), the “Produced peptide” value worked out at 16.2 mM.

`N[C@H](CO)C(=O)N[C@@H](CO)C(=O)O` [D-Ser-L-Ser] (H-[dS]-Ser-OH): the “Produced peptide” value worked out at 3.3 mM.

For `C[C@H](N)C(=O)N[C@H](CCC(N)=O)C(=O)O` [L-Ala-D-Gln] (H-Ala-[dQ]-OH), the “Produced peptide” value is 0.3 mM.

As for `CSCC[C@@H](N)C(=O)N[C@@H](CO)C(=O)O` [D-Met-L-Ser] (H-[dM]-Ser-OH), the “Produced peptide” value is reported as 5.1 mM.

In the case of `CC(C)[C@H](N)C(=O)N[C@H](CO)C(=O)O` [L-Val-D-Ser] (H-Val-[dS]-OH), the “Produced peptide” value worked out at 1.4 mM.

As for `C[C@H](O)[C@@H](N)C(=O)N[C@H](CO)C(=O)O` [D-Thr-D-Ser] (H-[dT]-[dS]-OH), the “Produced peptide” value is 1.1 mM.

Staying with this assay, now noted: L-amino acid amide hydrochloride 100 mM as carboxy component, L-amino acid 150 mM, pH 9.0, 25° C., 3 hours.
Regarding `N[C@@H](Cc1ccccc1)C(=O)N[C@@H](CO)C(=O)O` [L-Phe-L-Ser] (H-Phe-Ser-OH), the “Produced peptide” value is given as 0.6 mM.

Still in this assay, the particulars now being: L-amino acid ester 100 mM, amino acid or peptide amine component 150 mM, pH 9.0, 25° C., 3 hours.
Regarding Gly-Gly-L-Tyr-L-Ala, the “Produced peptide” value was 44.2 mM.

For the compound Gly-Gly-L-Gln, the “Produced peptide” value was 7.2 mM.

Still in this assay, the particulars now being: L-amino acid methyl ester hydrochloride 100 mM, L-amino acid 150 mM, pH 9.0, 25° C., 3 hours.
As to `C[C@@H](O)[C@H](N)C(=O)N[C@@H](CO)C(=O)O` [L-Thr-L-Ser] (H-Thr-Ser-OH), the “Produced peptide” value is on record as 58.2 mM.

For the compound `NCC(=O)N[C@@H](CS)C(=O)O` [Gly-L-CySH] (H-Gly-Cys-OH), the “Produced peptide” value is reported as 45.6 mM.

As for `CSCC[C@H](NC(=O)[C@@H](N)Cc1cnc[nH]1)C(=O)O` [L-His-L-Met] (H-His-Met-OH), the “Produced peptide” value is recorded as 6.5 mM.

For `CSCC[C@H](NC(=O)[C@@H](N)CCCCN)C(=O)O` [L-Lys-L-Met], the “Produced peptide” value is reported as 6.8 mM.

Turning to `CSCC[C@H](NC(=O)[C@@H](N)CC(C)C)C(=O)O` [L-Leu-L-Met] (H-Leu-Met-OH), the “Produced peptide” value is given as 12.2 mM.

For the compound `NC(=O)C[C@H](N)C(=O)N[C@@H](CCC(=O)O)C(=O)O` [LAsn-L-Glu] (H-Asn-Glu-OH), the “Produced peptide” value was 10.2 mM.

On to `CSCC[C@H](NC(=O)[C@@H](N)Cc1c[nH]c2ccccc12)C(=O)O` [L-Trp-L-Met] (H-Trp-Met-OH), for which the “Produced peptide” value amounted to 4.1 mM.

The same assay, now with this note: carboxy component 10 mM, amine component 15 mM, pH 9.0, 25° C., 3 hours.
As to L-Ala-L-Ala-L-Ala-L-Ala-L-Ala-L-Ala, the “Produced peptide (mM)” value was 1.4* mM.

The assay is the same for the next values; noted with them: carboxy component 40 mM, amine component 40 mM, 0.1 unit enzyme, 25° C., reaction time 3 hr.
As to `C[C@H](N)C(=O)N[C@@H](Cc1ccc([N+](=O)[O-])cc1)C(=O)O` [H-Ala-p-NO2-Phe-OH], the “Produced peptide” value came to 27.5 mM.

In the case of `C[C@H](N)C(=O)N[C@@H](Cc1ccc(Cl)cc1)C(=O)O` [H-Ala-Cl-F-Phe-OH], the “Produced peptide” value came out at 20.8 mM.

Turning to `NC(=O)CC[C@H](NC(=O)[C@@H](N)Cc1ccc([N+](=O)[O-])cc1)C(=O)O` [H-p-NO2-Phe-H-Gln-OH], the “Produced peptide” value is 1.1 mM.

Staying with this assay, now noted: carboxy component 50 mM, amine component 50 mM, 0.1 unit enzyme, 25° C., reaction time 3 hr.
Turning to `C[C@H](N)C(=O)N[C@@H](Cc1ccc(F)cc1)C(=O)O` [H-Ala-p-F-Phe-OH], the “Produced peptide” value is reported as 21.9 mM.

Still in this assay, the particulars now being: carboxy component 100 mM, amine component 150 mM, 0.1 unit enzyme, 25° C., reaction time 2 hr.
On to `CC(C)(C)OC(=O)C[C@H](N)C(=O)N[C@@H](CCC(N)=O)C(=O)O` [H-Asp (OtBu)-Gln-OH] (H-Asp(OtBu)-Gln-OH), for which the “Produced peptide” value was 0.9 mM.

Consider `C[C@H](N)C(=O)N[C@@H](COC(C)(C)C)C(=O)O` [H-Ala-Ser(tBu)-OH] (H-Ala-Ser(tBu)-OH), for which the “Produced peptide” value came out at 48.8 mM.

Regarding `C[C@H](N)C(=O)N[C@@H](CC(=O)OC(C)(C)C)C(=O)O` [H-Ala-Asp(OtBu)-OH] (H-Ala-Asp(OtBu)-OH), the “Produced peptide” value was found to be 62.6 mM.

`C[C@H](N)C(=O)N[C@@H](CCCCNC(=O)OC(C)(C)C)C(=O)O` [H-Ala-Lys(Boc)-OH] (H-Ala-Lys(Boc)-OH): the “Produced peptide” value is given as 51.0 mM.

Still in this assay, the particulars now being: carboxy component 100 mM, amine component 150 mM, 0.1 unit enzyme, 25° C., reaction time 3 hr.
Turning to `CC(C)(N)C(=O)N[C@@H](Cc1ccccc1)C(=O)O` [H-Aib-Phe-OH] (H-[Aib]-Phe-OH), the “Produced peptide” value came to 17.2 mM.

As for `C[C@H](N)C(=O)N[C@H](C(=O)O)C(C)(C)C` [H-Ala-t-Leu-OH] (H-Ala-[Tle]-OH), the “Produced peptide” value amounted to 0.4 mM.

Turning to `CN[C@@H](C)C(=O)N[C@@H](CCC(N)=O)C(=O)O` [H-N-Me-Ala-H-Gln-OH] (H-[NMeA]-Gln-OH), the “Produced peptide” value is 0.5 mM.

As for `CC(C)(N)C(=O)N[C@@H](CCC(N)=O)C(=O)O` [H-Aib-H-Gln-OH] (H-[Aib]-Gln-OH), the “Produced peptide” value is recorded as 18.8 mM.

The assay is the same for the next values; noted with them: carboxy component (label) 100 mM, 200 mM L-glutamine, pH 9.0, 25° C., 2 hours.
`C[C@H](N)C(=O)OC(C)(C)C.Cl` [L-Alanine-t-butyl ester.HCl]: the “L-Ala-L-Gln produced” value is 7.5 mM.

Take `CC(C)OC(=O)[C@H](C)N.Cl` [L-Alanine isopropyl ester.HCl]: the “L-Ala-L-Gln produced” value was determined as 78.9 mM.

In the case of `CCOC(=O)[C@H](C)N.Cl` [L-Alanine ethyl ester.HCl], the “L-Ala-L-Gln produced” value worked out at 91.5 mM.

In the case of `COC(=O)[C@H](C)N.Cl` [L-Alanine methyl ester.HCl, L-alanine methyl ester hydrochloride], the “L-Ala-L-Gln produced” value is recorded as 84.3 mM.

Staying with this assay, now noted: oligopeptide production, amount of enzyme 0.1 units, pH 9.0, 25° C., 3 hours.
As for [dA]-Gly-Phe, the “Produced peptide (mM)” value is recorded as “Tr”.

The assay is the same for the next values; noted with them: oligopeptide production, amount of enzyme 1.0 units, pH 9.0, 25° C., 3 hours.
For L-Tyr-Gly-Gly-L-Phe-L-Met, the “Produced peptide” value is listed as 2.7 mM.

With Gly-Phe-Met, the “Produced peptide” value was 13.3 mM.

Staying with this assay, now noted: β-amino acid ester as carboxy component or β-amino acid as amine component; 100 mM / 150 mM, pH 9.0, 25° C., 3 hours.
On to `NCCC(=O)NCCC(=O)O` [β-Ala-β-Ala], for which the “Produced peptide” value is on record as 0.2 mM.

Take `CC(N)C(=O)NC(CC(=O)O)c1ccccc1` (stereo not drawn) [Ala-β-Phe]: the “Produced peptide” value came to 1.4 mM.

For the compound `NCCC(=O)NC(CO)C(=O)O` [β-Ala-L-Ser], the “Produced peptide” value is recorded as 3.2 mM.

Take `CC(N)C(=O)NCCC(=O)O` (stereo not drawn) [Ala-β-Ala]: the “Produced peptide” value was determined as 7.7 mM.

As to `C[C@@H](O)[C@H](N)C(=O)NCCC(=O)O` [Thr-β-Ala], the “Produced peptide” value was 3.2 mM.

As for `NCC(=O)NC(CC(=O)O)c1ccccc1` (stereo not drawn) [Gly-β-Phe], the “Produced peptide” value is listed as 0.4 mM.

Turning to `C[C@@H](O)[C@H](N)C(=O)NC(CC(=O)O)c1ccccc1` (stereo partly drawn) [Thr-β-Phe], the “Produced peptide” value is 1.4 mM.

For the compound `NCCC(=O)N[C@@H](CCC(N)=O)C(=O)O` [β-Ala-L-Gln], the “Produced peptide” value is 0.6 mM.

With `NCC(=O)NCCC(=O)O` [Gly-β-Ala], the “Produced peptide” value was determined as 2.2 mM.
